Reference: patent US7807673B2, “2-pyrimidinyl pyrazolopyridine ErbB kinase inhibitors” (GlaxoSmithKline LLC, priority 2005, dated 2010)

Legend:
[1] = tested on: BT474 and HN5 tumor cell lines; experiment: Methylene blue growth inhibition assay (cellular Method A); assay type: cell-based; details: Homo sapiens, BT-474 and HN5, 72 h; Table 2, Method A methylene blue, 3 days; class over BT474 and HN5;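 also: class counts the more potent of the two cell lines (BT474 or HN5)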
Experimental: (§1) Human breast (BT474) and head and neck (HN5) were cultured in low glucose DMEM (Life Technologies 12320-032) containing 10% fetal bovine serum (FBS). Human colon tumor cells (Colo205) were cultured in DMEM (Invitrogen, 10564) containing 10% FBS. The SV40 transformed human mammary epithelial cell line to HB4a was transfected with either human H-ras cDNA (HB4a r4.2) or the human c-ErbB2 cDNA (HB4a c5.2). The HB4a clones were cultured in RPMI containing 10% FBS, insulin ([…]), hydrocortisone ([…]), supplemented with the selection agent hygromycin B ([…]). All lines were grown in a humidified incubator at 37° C. in 95% air, 5% CO2. Cells were harvested using trypsin/EDTA, counted using a haemocytometer, and plated in 100 microliters of the appropriate media, at the following densities, in a 96-well tissue culture plate (Falcon 3075): BT474 10,000 cells/well, HN5 3,000 cells/well. The next day, compounds were diluted in DMEM containing […] gentamicin, at twice the final required concentration, from 10 mM stock solutions in DMSO. 100 microliters/well of these dilutions were added to the 100 microliters of media currently on the cell plates. Medium containing 0.6% DMSO was added to control wells. Compounds diluted in DMEM were added to all cell lines. The final concentration of DMSO in all wells was 0.3%. Cells were returned to the incubator (37° C., […]) for 3 days. Medium was then removed by aspiration. Cell biomass was estimated by staining cells with 90 microliters per well methylene blue (Sigma M9140, 0.5% in 1:1 ethanol:water), and incubation at rt for at least 30 minutes. Stain was removed, and the plates rinsed by immersion in deionized water and air-dried. To release stain from the cells 100 microliters of solubilization solution was added (1% N-lauroyl sarcosine, Sodium salt, Sigma L5125, in PBS), and plates were shaken gently for about 30 minutes. Optical density at 620 nm was measured on a microplate reader. Percent inhibition of cell growth was calculated relative to vehicle treated control wells. Concentration of compound that inhibits 50% of control cell growth (IC50) was interpolated using nonlinear regression (Levenberg-Marquardt) and the equation, y=Vmax*(1−(x/(K+x)))+Y2, where “K” was equal to the IC50. Method B: Celltiter Glo® Growth Inhibition Assays

Colo205 tumor cell lines = experiment: as above; assay type: cell-based; details: Homo sapiens, COLO 205, 72 h, Table 3, Method A methylene blue, 3 days
Experimental: as §1

ErbB2 or EGFR = biological target: T1, ErbB2 or EGFR; experiment: ErbB enzyme substrate phosphorylation assay (HTRF), Method B (enzyme pre-incubated with compound 1 hour); assay type: biochemical; details: Table 1, enzyme Method B: enzyme mix incubated with compound 1 hour at 20° C., reaction started with substrate mix; class over ErbB2 or EGFR
T1 construct: enzymes purified from a baculovirus expression system
Summary of the method: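 Baculovirus-expressed kinase (0.8 nM EGFR or 10 nM ErbB2 in enzyme mix) phosphorylated biotinylated Peptide C (0.8 µM in substrate mix) with 20 µM ATP in substrate mix, MOPS pH 7.5, MnCl2, 90 min at 20 °C. Method A started with enzyme; Method B pre-incubated enzyme with compound 1 h at 20 °C. HTRF read-out; IC50 from 12-point curve (0.00027–47.6 µM), reported as pIC50.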

Row | IC50 [1] [µM] | IC50 (Colo205 tumor cell lines) [µM] | Structure (SMILES) | Activity (Method) (ErbB2 or EGFR)
1 | 0.1 to 1 | > 1 | NCc1cccc(Nc2nccc(-c3c(-c4cccc(NC(=O)Cc5ccsc5)c4)nn4ccccc34)n2)c1 [Example 43, N-{3-[3-(2-{[3-(Aminomethyl)phenyl]amino}-4-pyrimidinyl)pyrazolo[1,5-a]pyridin-2-yl]phenyl}-2-(3-thienyl)acetamide] | +++ (B) (at least one pIC50 measurement of greater than 7 against either ErbB2 or EGFR)
2 | > 1 | > 1 | O=C(Cc1cccs1)Nc1cccc(-c2nn3ccccc3c2-c2ccnc(Nc3cccc(F)c3)n2)c1 [Example 9, N-[3-(3-{2-[(3-Fluorophenyl)amino]-4-pyrimidinyl}pyrazolo[1,5-a]pyridin-2-yl)phenyl]-2-(2-thienyl)acetamide] | +++ (B) (at least one pIC50 measurement of greater than 7 against either ErbB2 or EGFR)
3 | 0.1 to 1 | 0.1 to 1 | O=C(Cc1cccs1)Nc1cccc(-c2nn3ccccc3c2-c2ccnc(Nc3cccc(-c4cnco4)c3)n2)c1 [Example 1, N-{3-[3-(2-{[3-(1,3-oxazol-5-yl)phenyl]amino}-4-pyrimidinyl)pyrazolo[1,5-a]pyridin-2-yl]phenyl}-2-(2-thienyl)acetamide] | +++ (B) (at least one pIC50 measurement of greater than 7 against either ErbB2 or EGFR)
4 | > 1 | > 1 | Cc1cc(CC(=O)Nc2cccc(-c3nn4ccccc4c3-c3ccnc(Nc4cccc(CN(C)C)c4)n3)c2)on1 [Example 28, N-(3-{3-[2-({3-[(Dimethylamino)methyl]-phenyl}amino)-4-pyrimidinyl]pyrazolo[1,5-a]pyridin-2-yl}phenyl)-2-(3-methyl-5-isoxazolyl)acetamide] | +++ (B) (at least one pIC50 measurement of greater than 7 against either ErbB2 or EGFR)
5 | > 1 | > 1 | O=C(Cc1cccs1)Nc1cccc(-c2nn3ccccc3c2-c2ccnc(Nc3ccc(Cl)c(OCCN4CCCC4)c3)n2)c1 [Example 44, N-[3-(3-{2-[(4-chloro-3-{[2-(1-pyrrolidinyl)ethyl]oxy}phenyl)amino]-4-pyrimidinyl}pyrazolo[1,5-a]pyridin-2-yl)phenyl]-2-(2-thienyl)acetamide] | +++ (B) (at least one pIC50 measurement of greater than 7 against either ErbB2 or EGFR)
6 | 0.1 to 1 | 0.1 to 1 | O=C(Cc1cccs1)Nc1cccc(-c2nn3ccccc3c2-c2ccnc(Nc3cccc(OCCCN4CCCC4)c3)n2)c1 [Example 13, N-[3-(3-{2-[(3-{[3-(1-Pyrrolidinyl)propyl]oxy}phenyl)amino]-4-pyrimidinyl}pyrazolo[1,5-a]pyridin-2-yl)phenyl]-2-(2-thienyl)acetamide] | +++ (B) (at least one pIC50 measurement of greater than 7 against either ErbB2 or EGFR)
7 | 0.1 to 1 | 0.1 to 1 | CN(C)CCCOc1cccc(Nc2nccc(-c3c(-c4cccc(NC(=O)Cc5cccs5)c4)nn4ccccc34)n2)c1 [Example 12, N-[3-(3-{2-[(3-{[3-(Dimethylamino)propyl]oxy}phenyl)-amino]-4-pyrimidinyl}pyrazolo[1,5-a]pyridin-2-yl)phenyl]-2-(2-thienyl)acetamide] | +++ (B) (at least one pIC50 measurement of greater than 7 against either ErbB2 or EGFR)
8 | 0.1 to 1 | 0.1 to 1 | CN(C)C1Cc2ccc(Nc3nccc(-c4c(-c5cccc(NC(=O)Cc6cccs6)c5)nn5ccccc45)n3)cc2C1 (stereo not drawn) [Example 53, N-{3-[3-(2-{[2-(Dimethylamino)-2,3-dihydro-1H-inden-5-yl]amino}pyrimidin-4-yl)pyrazolo[1,5-a]pyridin-2-yl]phenyl}-2-(2-thienyl)acetamide] | +++ (B) (at least one pIC50 measurement of greater than 7 against either ErbB2 or EGFR)
9 | 0.1 to 1 | 0.1 to 1 | NC1CCc2ccc(Nc3nccc(-c4c(-c5cccc(NC(=O)Cc6cccs6)c5)nn5ccccc45)n3)cc2C1 (stereo not drawn) [Example 55, N-[3-(3-{2-[(7-Amino-5,6,7,8-tetrahydro-2-naphthalenyl)amino]-4-pyrimidinyl}pyrazolo[1,5-a]pyridin-2-yl)phenyl]-2-(2-thienyl)acetamide] | +++ (B) (at least one pIC50 measurement of greater than 7 against either ErbB2 or EGFR)
10 | 0.1 to 1 | 0.1 to 1 | CN(C)Cc1cccc(Nc2nccc(-c3c(-c4cccc(NC(=O)Cc5ccsc5)c4)nn4ccccc34)n2)c1 [Example 24, N-(3-{3-[2-({3-[(Dimethylamino)methyl]phenyl}-amino)-4-pyrimidinyl]pyrazolo[1,5-a]pyridin-2-yl}phenyl)-2-(3-thienyl)acetamide] | +++ (B) (at least one pIC50 measurement of greater than 7 against either ErbB2 or EGFR)
11 | 0.1 to 1 | 0.1 to 1 | CN(C)CCOc1cccc(Nc2nccc(-c3c(-c4cccc(NC(=O)Cc5cccs5)c4)nn4ccccc34)n2)c1 [Example 15, N-[3-(3-{2-[(3-{[2-(Dimethylamino)ethyl]oxy}phenyl)amino]-4-pyrimidinyl}pyrazolo[1,5-a]pyridin-2-yl)phenyl]-2-(2-thienyl)acetamide] | +++ (B) (at least one pIC50 measurement of greater than 7 against either ErbB2 or EGFR)
12 | 0.1 to 1 | 0.1 to 1 | O=C(Cc1cccs1)Nc1cccc(-c2nn3ccccc3c2-c2ccnc(Nc3cccc(OCCN4CCCC4)c3)n2)c1 [Example 10, N-[3-(3-{2-[(3-{[2-(1-Pyrrolidinyl)ethyl]oxy}phenyl)amino]-4-pyrimidinyl}pyrazolo[1,5-a]pyridin-2-yl)phenyl]-2-(2-thienyl)acetamide] | +++ (B) (at least one pIC50 measurement of greater than 7 against either ErbB2 or EGFR)
13 | < 0.1 | 0.1 to 1 | CN(C)CCCNc1ccc(Nc2nccc(-c3c(-c4cccc(NC(=O)Cc5cccs5)c4)nn4ccccc34)n2)cc1F [Example 2, N-[3-(3-{2-[(4-{[3-(Dimethylamino)propyl]amino}-3-fluorophenyl)amino]-4-pyrimidinyl}pyrazolo[1,5-a]pyridin-2-yl)phenyl]-2-(2-thienyl)acetamide] | +++ (B) (at least one pIC50 measurement of greater than 7 against either ErbB2 or EGFR)
